Source: PubChem BioAssay (NCI)
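Five concentrations, 48 hours, 96-well plates. GI50 = concentration required for 50% inhibition of growth. TGI: concentration producing complete growth inhibition.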

What was measured:
Assay in all cases: DTP human tumour cell line panel, 48 h
SK-MEL-5 melanoma = test system: SK-MEL-5 melanoma
SF-295 CNS = test system: SF-295 CNS
HCT-15 colon = test system: HCT-15 colon
SF-539 CNS = test system: SF-539 CNS
HCC-2998 colon = test system: HCC-2998 colon
SF-268 CNS = test system: SF-268 CNS
OVCAR-3 ovarian = test system: OVCAR-3 ovarian
T-47D breast = test system: T-47D breast
MALME-3M melanoma = test system: MALME-3M melanoma
786-0 renal = test system: 786-0 renal
UACC-62 melanoma = test system: UACC-62 melanoma
SK-OV-3 ovarian = test system: SK-OV-3 ovarian
UACC-257 melanoma = test system: UACC-257 melanoma
U251 CNS = test system: U251 CNS
CCRF-CEM leukemia = test system: CCRF-CEM leukemia
SN12C renal = test system: SN12C renal
MDA-MB-231 breast = test system: MDA-MB-231 breast
CAKI-1 renal = test system: CAKI-1 renal
EKVX NSCLC = test system: EKVX NSCLC
OVCAR-4 ovarian = test system: OVCAR-4 ovarian
NCI/ADR-RES ovarian = test system: NCI/ADR-RES ovarian
ACHN renal = test system: ACHN renal
SNB-19 CNS = test system: SNB-19 CNS
COLO 205 colon = test system: COLO 205 colon
A549 NSCLC = test system: A549 NSCLC
BT-549 breast = test system: BT-549 breast
SK-MEL-28 melanoma = test system: SK-MEL-28 melanoma
HOP-92 NSCLC = test system: HOP-92 NSCLC
PC-3 prostate = test system: PC-3 prostate
TK-10 renal = test system: TK-10 renal
HL-60(TB) leukemia = test system: HL-60(TB) leukemia
HOP-62 NSCLC = test system: HOP-62 NSCLC
NCI-H23 lung = test system: NCI-H23 lung
OVCAR-8 ovarian = test system: OVCAR-8 ovarian
NCI-H522 lung = test system: NCI-H522 lung
LOX IMVI melanoma = test system: LOX IMVI melanoma
RPMI-8226 leukemia = test system: RPMI-8226 leukemia
NCI-H226 lung = test system: NCI-H226 lung
OVCAR-5 ovarian = test system: OVCAR-5 ovarian
HT29 colon = test system: HT29 colon
K-562 leukemia = test system: K-562 leukemia
IGROV1 ovarian = test system: IGROV1 ovarian
HCT-116 colon = test system: HCT-116 colon
SK-MEL-2 melanoma = test system: SK-MEL-2 melanoma
DU-145 prostate = test system: DU-145 prostate
RXF 393 renal = test system: RXF 393 renal
MDA-MB-435 = test system: MDA-MB-435
KM12 colon = test system: KM12 colon
MCF7 breast = test system: MCF7 breast
SNB-75 CNS = test system: SNB-75 CNS
MOLT-4 leukemia = test system: MOLT-4 leukemia
SR leukemia = test system: SR leukemia
UO-31 renal = test system: UO-31 renal
M14 melanoma = test system: M14 melanoma
SW-620 colon = test system: SW-620 colon

## CC/C=C1/C(=O)C=C[C@@H]1C/C=C\CCCC(=O)OC
SK-MEL-5 melanoma
  GI50: 1.77 µM
  TGI: 3.2 µM
SF-295 CNS
  GI50: 2.6 µM
  TGI: 6.76 µM
HCT-15 colon
  GI50: 1.94 µM
  TGI: 5.31 µM
SF-539 CNS
  GI50: 3.66 µM
  TGI: 13.7 µM
HCC-2998 colon
  GI50: 2.13 µM
  TGI: 3.83 µM
SF-268 CNS
  GI50: 3.03 µM
  TGI: 13.1 µM
OVCAR-3 ovarian
  GI50: 3.05 µM
  TGI: 10.2 µM
T-47D breast
  GI50: 3.79 µM
  TGI: 16.7 µM
MALME-3M melanoma
  GI50: 2.92 µM
  TGI: 9.06 µM
786-0 renal
  GI50: 2.56 µM
  TGI: 6.59 µM
UACC-62 melanoma
  GI50: 1.97 µM
  TGI: 4.6 µM
SK-OV-3 ovarian
  GI50: 7.15 µM
  TGI: 19.5 µM
UACC-257 melanoma
  GI50: 2.51 µM
  TGI: 7.1 µM
U251 CNS
  GI50: 2.75 µM
  TGI: 9.96 µM
CCRF-CEM leukemia
  GI50: 0.519 µM
  TGI: 10.6 µM
SN12C renal
  GI50: 3.08 µM
  TGI: 8.58 µM
MDA-MB-231 breast
  GI50: 4.43 µM
  TGI: 15.4 µM
CAKI-1 renal
  GI50: 2.7 µM
  TGI: 7.45 µM
EKVX NSCLC
  GI50: 4.8 µM
  TGI: 16.8 µM
OVCAR-4 ovarian
  GI50: 5.24 µM
  TGI: 18 µM
NCI/ADR-RES ovarian
  GI50: 2.88 µM
  TGI: 14.5 µM
ACHN renal
  GI50: 2.27 µM
  TGI: 4.57 µM
SNB-19 CNS
  GI50: 3.27 µM
  TGI: 12.9 µM
COLO 205 colon
  GI50: 2.4 µM
  TGI: 5.18 µM
A549 NSCLC
  GI50: 13.3 µM
  TGI: 29.5 µM
BT-549 breast
  GI50: 2.84 µM
  TGI: 8.15 µM
SK-MEL-28 melanoma
  GI50: 2.52 µM
  TGI: 6.27 µM
HOP-92 NSCLC
  GI50: 12.1 µM
  TGI: 25.1 µM
PC-3 prostate
  GI50: 3.02 µM
  TGI: 8.56 µM
TK-10 renal
  GI50: 4.07 µM
  TGI: 14.5 µM
HL-60(TB) leukemia
  GI50: 2.17 µM
  TGI: 6.94 µM
HOP-62 NSCLC
  GI50: 3.39 µM
  TGI: 11.9 µM
NCI-H23 lung
  GI50: 2.17 µM
  TGI: 5.86 µM
OVCAR-8 ovarian
  GI50: 3.72 µM
  TGI: 14.9 µM
NCI-H522 lung
  GI50: 1.56 µM
  TGI: 3.57 µM
LOX IMVI melanoma
  GI50: 0.505 µM
  TGI: 1.91 µM
RPMI-8226 leukemia
  GI50: 0.699 µM
  TGI: 5.54 µM
NCI-H226 lung
  GI50: 13.7 µM
  TGI: 31.2 µM
OVCAR-5 ovarian
  GI50: 4.73 µM
  TGI: 15.1 µM
HT29 colon
  GI50: 2.25 µM
  TGI: 5.3 µM
K-562 leukemia
  GI50: 0.767 µM
  TGI: > 100 µM
IGROV1 ovarian
  GI50: 3.76 µM
  TGI: 15.8 µM
HCT-116 colon
  GI50: 0.447 µM
  TGI: 2.4 µM
SK-MEL-2 melanoma
  GI50: 2.24 µM
  TGI: 6.94 µM
DU-145 prostate
  GI50: 4.56 µM
  TGI: 16.4 µM
RXF 393 renal
  GI50: 2.03 µM
  TGI: 3.9 µM
MDA-MB-435
  GI50: 1.86 µM
  TGI: 4.6 µM
KM12 colon
  GI50: 2.08 µM
  TGI: 5.06 µM
MCF7 breast
  GI50: 1.21 µM
  TGI: 11 µM
SNB-75 CNS
  GI50: 12.9 µM
  TGI: 33.2 µM
MOLT-4 leukemia
  GI50: 1.37 µM
  TGI: 8.11 µM
SR leukemia
  GI50: 0.563 µM
UO-31 renal
  GI50: 2.24 µM
  TGI: 5.43 µM
M14 melanoma
  GI50: 2.8 µM
  TGI: 10.8 µM

## COc1ccc(CN2c3ccccc3Sc3ccccc32)c(F)c1
HCT-15 colon
  GI50: 0.0379 µM
  TGI: > 100 µM
HCC-2998 colon
  GI50: 5.06 µM
  TGI: > 100 µM
SW-620 colon
  GI50: 0.0363 µM
  TGI: > 100 µM
UACC-257 melanoma
  GI50: > 100 µM
  TGI: > 100 µM
SN12C renal
  GI50: 10.6 µM
  TGI: > 100 µM
MDA-MB-231 breast
  GI50: 5.09 µM
  TGI: > 100 µM
SK-MEL-28 melanoma
  GI50: 5.05 µM
  TGI: > 100 µM
NCI-H226 lung
  GI50: 13 µM
  TGI: > 100 µM
OVCAR-5 ovarian
  GI50: 4.39 µM
  TGI: > 100 µM
HT29 colon
  GI50: 0.035 µM
  TGI: > 100 µM
K-562 leukemia
  GI50: 0.038 µM
  TGI: > 100 µM
IGROV1 ovarian
  GI50: 4.56 µM
  TGI: > 100 µM
HCT-116 colon
  GI50: 0.0398 µM
  TGI: > 100 µM
KM12 colon
  GI50: 0.0432 µM
  TGI: > 100 µM
MCF7 breast
  GI50: 0.0327 µM
  TGI: > 100 µM
SR leukemia
  GI50: 0.0596 µM
  TGI: > 100 µM
M14 melanoma
  GI50: 0.0381 µM
  TGI: > 100 µM
